Tests used:
oesophageal cancer [1] = experiment: Pilot clinical study: imaging of uptake of ^195mPt-Cisplatin in lesions; assay type: in vivo, patients
Description: As part of a pilot study to evaluate the use of ^195mPt-Cisplatin and ^195mPt Carboplatin for prognosis of cancer, two patients were injected with ^195mPt-Cisplatin prepared as described in Example 2.
(§1) Patient No. 1 had oesophageal cancer, with one large lesion in the mediastinal region and large metastases in the liver. F-18-DG imaging confirmed the presence of both lesions. The patient was injected with ^195mPt-Cisplatin (100 MBq; specific activity 4.2 MBq/mg cisplatin) and imaged over a 5 day period. […] The patient was placed on a normal cisplatin chemotherapy in combination with radiation.
Patient No. 2 had oesophageal cancer. CT confirmed a large lesion in the mediastinal region. The patient was injected with ^195mPt-Cisplatin (50 MBq: specific activity 3.6 MBq/mg cisplatin) and Imaged over a 3 day period. […] The patient has undergone cisplatin chemotherapy and is being monitored for response to treatment.

oesophageal cancer [2] = experiment: Response to normal cisplatin chemotherapy in combination with radiation; assay type: in vivo, patients; settings: Patient No. 1, after 2 months
Description: as §1

| Compound | uptake of the radiolabelled cisplatin in lesions (oesophageal cancer [1]; Patient No. 1, lesion in mediastinal region and liver metastases, injected 100 MBq (4.2 MBq/mg cisplatin), imaged over a 5 day period) | uptake of the ^195mPt-Cisplatin in the mediastinal region (oesophageal cancer [1]; Patient No. 2, large lesion in mediastinal region, injected 50 MBq (3.6 MBq/mg cisplatin), imaged over a 3 day period) | response to treatment (oesophageal cancer [2]) |
| --- | --- | --- | --- |
| N.N.[Cl][195Pt][Cl] [^195mPt-Cisplatin, [^195mPt]Cisplatin] | negligible uptake | significant uptake | – |
| N.N.[Cl][Pt][Cl] [cisplatin, cis-dichlorodiammine-platinum(II)] | – | – | no evidence of response to treatment |

From patent publication US7108845B2, “Methods of synthesis and use of radiolabelled platinum chemotherapeutic agents” (Australian Nuclear Science & Technology Organisation, priority 2000, dated 2006)
